Measured values from the NIST ThermoML archive (doi:10.1016/j.fluid.2008.03.004).

Assay: xn = mol fraction of the nth substance listed
Conditions: 101 kPa, Liquid; for speed of sound: Sing-around technique in a fixed-path interferometer

CCOC(C)(C)C [2-ethoxy-2-methylpropane] + Cc1ccc(C)cc1
Conditions	mass density [kg/m3]	speed of sound [m/s]
305.65 K, x1 = 0.062	842.155	–
305.65 K, x1 = 0.123	834.557	–
305.65 K, x1 = 0.238	820.611	–
305.65 K, x1 = 0.35	806.841	–
305.65 K, x1 = 0.455	793.966	–
305.65 K, x1 = 0.557	781.512	–
305.65 K, x1 = 0.654	769.583	–
305.65 K, x1 = 0.746	758.333	–
305.65 K, x1 = 0.834	747.515	–
305.65 K, x1 = 0.902	739.137	–
305.65 K, x1 = 0.959	732.166	–
305.65 K, x1 = 1	727.038	–
308.15 K, x1 = 0.062	839.962	1248.7
308.15 K, x1 = 0.123	832.343	1231.1
308.15 K, x1 = 0.238	818.339	1198.4
308.15 K, x1 = 0.35	804.54	1166.7
308.15 K, x1 = 0.455	791.627	1137.1
308.15 K, x1 = 0.557	779.104	1108.3
308.15 K, x1 = 0.654	767.142	1081.2
308.15 K, x1 = 0.746	755.854	1055.7
308.15 K, x1 = 0.834	745.002	1031.6
308.15 K, x1 = 0.902	736.575	1012.8
308.15 K, x1 = 0.959	729.598	997.44
308.15 K, x1 = 1	724.443	986.39
310.65 K, x1 = 0.062	837.759	1238.5
310.65 K, x1 = 0.123	830.128	1220.9
310.65 K, x1 = 0.238	816.051	1188
310.65 K, x1 = 0.35	802.206	1156.1
310.65 K, x1 = 0.455	789.243	1126.3
310.65 K, x1 = 0.557	776.705	1097.6
310.65 K, x1 = 0.654	764.679	1070.4
310.65 K, x1 = 0.746	753.335	1044.9
310.65 K, x1 = 0.834	742.455	1020.6
310.65 K, x1 = 0.902	733.99	1001.8
310.65 K, x1 = 0.959	726.994	986.36
310.65 K, x1 = 1	721.826	975.42
313.15 K, x1 = 0.062	835.532	1228.3
313.15 K, x1 = 0.123	827.882	1210.7
313.15 K, x1 = 0.238	813.765	1177.8
313.15 K, x1 = 0.35	799.872	1145.7
313.15 K, x1 = 0.455	786.866	1115.8
313.15 K, x1 = 0.557	774.27	1087
313.15 K, x1 = 0.654	762.204	1059.7
313.15 K, x1 = 0.746	750.812	1034.1
313.15 K, x1 = 0.834	739.901	1009.8
313.15 K, x1 = 0.902	731.4	990.86
313.15 K, x1 = 0.959	724.383	975.56
313.15 K, x1 = 1	719.179	964.53
315.65 K, x1 = 0.062	833.306	1218.3
315.65 K, x1 = 0.123	825.641	1200.6
315.65 K, x1 = 0.238	811.445	1167.5
315.65 K, x1 = 0.35	797.52	1135.4
315.65 K, x1 = 0.455	784.471	1105.4
315.65 K, x1 = 0.557	771.824	1076.4
315.65 K, x1 = 0.654	759.71	1049.1
315.65 K, x1 = 0.746	748.28	1023.4
315.65 K, x1 = 0.834	737.319	998.93
315.65 K, x1 = 0.902	728.791	980.02
315.65 K, x1 = 0.959	721.749	964.74
315.65 K, x1 = 1	716.527	953.54
318.15 K, x1 = 0.062	831.175	1208.1
318.15 K, x1 = 0.123	823.476	1190.2
318.15 K, x1 = 0.238	809.233	1157
318.15 K, x1 = 0.35	795.26	1124.9
318.15 K, x1 = 0.455	782.164	1094.8
318.15 K, x1 = 0.557	769.47	1065.8
318.15 K, x1 = 0.654	757.309	1038.5
318.15 K, x1 = 0.746	745.827	1012.6
318.15 K, x1 = 0.834	734.831	988.25
318.15 K, x1 = 0.902	726.264	969.29
318.15 K, x1 = 0.959	719.189	953.77
318.15 K, x1 = 1	713.96	942.67
320.65 K, x1 = 0.062	828.907	1197.9
320.65 K, x1 = 0.123	821.186	1180
320.65 K, x1 = 0.238	806.89	1146.7
320.65 K, x1 = 0.35	792.863	1114.4
320.65 K, x1 = 0.455	779.723	1084.3
320.65 K, x1 = 0.557	766.974	1055.2
320.65 K, x1 = 0.654	754.765	1027.7
320.65 K, x1 = 0.746	743.239	1001.8
320.65 K, x1 = 0.834	732.197	977.45
320.65 K, x1 = 0.902	723.589	958.35
320.65 K, x1 = 0.959	716.494	942.81
320.65 K, x1 = 1	711.25	931.73
323.15 K, x1 = 0.062	826.773	1187.7
323.15 K, x1 = 0.123	819.029	1169.7
323.15 K, x1 = 0.238	804.681	1136.3
323.15 K, x1 = 0.35	790.599	1103.9
323.15 K, x1 = 0.455	777.399	1073.7
323.15 K, x1 = 0.557	764.613	1044.6
323.15 K, x1 = 0.654	752.347	1017.1
323.15 K, x1 = 0.746	740.77	991.05
323.15 K, x1 = 0.834	729.685	966.6
323.15 K, x1 = 0.902	721.039	947.53
323.15 K, x1 = 0.959	713.92	931.92
323.15 K, x1 = 1	708.642	920.73
